Source: PubChem BioAssay (NCI)
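Test compounds were applied to cells in 96-well plates for 48 hours at 5 doses. At the TGI there is no net growth.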

Key:
Test in all cases: DTP human tumour cell line panel, 48 h
OVCAR-5 ovarian = test system: OVCAR-5 ovarian
SF-268 CNS = test system: SF-268 CNS
KM12 colon = test system: KM12 colon
HS 578T breast = test system: HS 578T breast
RXF 393 renal = test system: RXF 393 renal
UACC-62 melanoma = test system: UACC-62 melanoma
NCI-H226 lung = test system: NCI-H226 lung
U251 CNS = test system: U251 CNS
IGROV1 ovarian = test system: IGROV1 ovarian
HOP-62 NSCLC = test system: HOP-62 NSCLC
EKVX NSCLC = test system: EKVX NSCLC
A549 NSCLC = test system: A549 NSCLC
OVCAR-4 ovarian = test system: OVCAR-4 ovarian
786-0 renal = test system: 786-0 renal
SF-539 CNS = test system: SF-539 CNS
SR leukemia = test system: SR leukemia
RPMI-8226 leukemia = test system: RPMI-8226 leukemia
HT29 colon = test system: HT29 colon
SNB-75 CNS = test system: SNB-75 CNS
SN12C renal = test system: SN12C renal
NCI-H23 lung = test system: NCI-H23 lung
OVCAR-3 ovarian = test system: OVCAR-3 ovarian
MDA-MB-231 breast = test system: MDA-MB-231 breast
MDA-MB-435 = test system: MDA-MB-435
HCT-15 colon = test system: HCT-15 colon
K-562 leukemia = test system: K-562 leukemia
LOX IMVI melanoma = test system: LOX IMVI melanoma
SW-620 colon = test system: SW-620 colon
CAKI-1 renal = test system: CAKI-1 renal
CCRF-CEM leukemia = test system: CCRF-CEM leukemia
OVCAR-8 ovarian = test system: OVCAR-8 ovarian
COLO 205 colon = test system: COLO 205 colon
SK-MEL-2 melanoma = test system: SK-MEL-2 melanoma
UO-31 renal = test system: UO-31 renal
ACHN renal = test system: ACHN renal
TK-10 renal = test system: TK-10 renal
BT-549 breast = test system: BT-549 breast
SK-OV-3 ovarian = test system: SK-OV-3 ovarian
UACC-257 melanoma = test system: UACC-257 melanoma
M14 melanoma = test system: M14 melanoma
SK-MEL-5 melanoma = test system: SK-MEL-5 melanoma
NCI-H522 lung = test system: NCI-H522 lung
T-47D breast = test system: T-47D breast
NCI/ADR-RES ovarian = test system: NCI/ADR-RES ovarian
MALME-3M melanoma = test system: MALME-3M melanoma
SNB-19 CNS = test system: SNB-19 CNS
HCT-116 colon = test system: HCT-116 colon
SF-295 CNS = test system: SF-295 CNS
NCI-H460 lung = test system: NCI-H460 lung
HCC-2998 colon = test system: HCC-2998 colon
HOP-92 NSCLC = test system: HOP-92 NSCLC
MCF7 breast = test system: MCF7 breast
MOLT-4 leukemia = test system: MOLT-4 leukemia
PC-3 prostate = test system: PC-3 prostate
MDA-N = test system: MDA-N
HL-60(TB) leukemia = test system: HL-60(TB) leukemia
DU-145 prostate = test system: DU-145 prostate
SK-MEL-28 melanoma = test system: SK-MEL-28 melanoma
A498 renal = test system: A498 renal

CCc1n[nH]c(=O)n1CCCCCCCCn1c(CC)n[nH]c1=O gave a TGI (OVCAR-5 ovarian) greater than 100 µM, a TGI (SF-268 CNS) greater than 100 µM and a TGI (KM12 colon) greater than 100 µM. The TGI (HS 578T breast) was greater than 100 µM, the TGI (RXF 393 renal) was greater than 100 µM and the TGI (UACC-62 melanoma) was greater than 100 µM. It also gave a TGI (NCI-H226 lung) greater than 100 µM, a TGI (U251 CNS) greater than 100 µM and a TGI (IGROV1 ovarian) greater than 100 µM. For the same compound, the TGI (HOP-62 NSCLC) was greater than 100 µM, the TGI (EKVX NSCLC) was greater than 100 µM and the TGI (A549 NSCLC) was greater than 100 µM. For the same compound, the TGI (OVCAR-4 ovarian) was greater than 100 µM, the TGI (786-0 renal) was greater than 100 µM and the TGI (SF-539 CNS) was greater than 100 µM. The TGI (SR leukemia) was greater than 100 µM, the TGI (RPMI-8226 leukemia) was greater than 100 µM and the TGI (HT29 colon) was greater than 100 µM. It also gave a TGI (SNB-75 CNS) greater than 100 µM, a TGI (SN12C renal) greater than 100 µM and a TGI (NCI-H23 lung) greater than 100 µM. It also gave a TGI (OVCAR-3 ovarian) greater than 100 µM, a TGI (MDA-MB-231 breast) greater than 100 µM and a TGI (MDA-MB-435) greater than 100 µM. It also gave a TGI (HCT-15 colon) greater than 100 µM, a TGI (K-562 leukemia) greater than 100 µM and a TGI (LOX IMVI melanoma) greater than 100 µM. It also gave a TGI (SW-620 colon) greater than 100 µM, a TGI (CAKI-1 renal) greater than 100 µM and a TGI (CCRF-CEM leukemia) greater than 100 µM. For the same compound, the TGI (OVCAR-8 ovarian) was greater than 100 µM, the TGI (COLO 205 colon) was greater than 100 µM and the TGI (SK-MEL-2 melanoma) was greater than 100 µM. The TGI (UO-31 renal) was greater than 100 µM, the TGI (ACHN renal) was greater than 100 µM and the TGI (TK-10 renal) was greater than 100 µM. It also gave a TGI (BT-549 breast) greater than 100 µM, a TGI (SK-OV-3 ovarian) greater than 100 µM and a TGI (UACC-257 melanoma) greater than 100 µM. The TGI (M14 melanoma) was greater than 100 µM, the TGI (SK-MEL-5 melanoma) was greater than 100 µM and the TGI (NCI-H522 lung) was greater than 100 µM. For the same compound, the TGI (T-47D breast) was greater than 100 µM, the TGI (NCI/ADR-RES ovarian) was greater than 100 µM and the TGI (MALME-3M melanoma) was greater than 100 µM. The TGI (SNB-19 CNS) was greater than 100 µM, the TGI (HCT-116 colon) was greater than 100 µM and the TGI (SF-295 CNS) was greater than 100 µM. For the same compound, the TGI (NCI-H460 lung) was greater than 100 µM, the TGI (HCC-2998 colon) was greater than 100 µM and the TGI (HOP-92 NSCLC) was greater than 100 µM. It also gave a TGI (MCF7 breast) greater than 100 µM, a TGI (MOLT-4 leukemia) greater than 100 µM and a TGI (PC-3 prostate) greater than 100 µM. The TGI (MDA-N) was greater than 100 µM.

With CCOC(=O)c1c[nH]c(C(=O)OCC)c1-c1cccn1-c1ccccc1 the TGI (OVCAR-5 ovarian) was greater than 100 µM, the TGI (SF-268 CNS) was greater than 100 µM and the TGI (KM12 colon) was 24.6 µM. It also gave a TGI (HS 578T breast) of 59 µM, a TGI (RXF 393 renal) of 43 µM and a TGI (UACC-62 melanoma) of 38.9 µM. The TGI (NCI-H226 lung) was 98.8 µM, the TGI (U251 CNS) was 48 µM and the TGI (IGROV1 ovarian) was 51.9 µM. The TGI (HL-60(TB) leukemia) was 54.4 µM, the TGI (HOP-62 NSCLC) was 50 µM and the TGI (EKVX NSCLC) was greater than 100 µM. It also gave a TGI (A549 NSCLC) greater than 100 µM, a TGI (DU-145 prostate) greater than 100 µM and a TGI (786-0 renal) greater than 100 µM. For the same compound, the TGI (RPMI-8226 leukemia) was 52.6 µM, the TGI (SK-MEL-28 melanoma) was 79.5 µM and the TGI (HT29 colon) was 89.9 µM. It also gave a TGI (SNB-75 CNS) of 52.2 µM, a TGI (SN12C renal) of 69.2 µM and a TGI (NCI-H23 lung) greater than 100 µM. The TGI (OVCAR-3 ovarian) was 37.4 µM, the TGI (MDA-MB-231 breast) was greater than 100 µM and the TGI (MDA-MB-435) was greater than 100 µM. For the same compound, the TGI (HCT-15 colon) was greater than 100 µM, the TGI (K-562 leukemia) was 45.4 µM and the TGI (LOX IMVI melanoma) was 32.4 µM. For the same compound, the TGI (SW-620 colon) was greater than 100 µM, the TGI (CAKI-1 renal) was 67.7 µM and the TGI (CCRF-CEM leukemia) was 52.2 µM. The TGI (OVCAR-8 ovarian) was 59.6 µM, the TGI (COLO 205 colon) was 38.5 µM and the TGI (SK-MEL-2 melanoma) was 35.5 µM. For the same compound, the TGI (UO-31 renal) was 77.4 µM, the TGI (ACHN renal) was greater than 100 µM and the TGI (TK-10 renal) was greater than 100 µM. The TGI (BT-549 breast) was greater than 100 µM, the TGI (SK-OV-3 ovarian) was 90.6 µM and the TGI (UACC-257 melanoma) was greater than 100 µM. It also gave a TGI (M14 melanoma) of 41.9 µM, a TGI (SK-MEL-5 melanoma) of 28.4 µM and a TGI (NCI-H522 lung) of 55.4 µM. The TGI (T-47D breast) was greater than 100 µM, the TGI (NCI/ADR-RES ovarian) was 76 µM and the TGI (MALME-3M melanoma) was 56.4 µM. The TGI (SNB-19 CNS) was greater than 100 µM, the TGI (HCT-116 colon) was 30.3 µM and the TGI (SF-295 CNS) was 52.3 µM. The TGI (NCI-H460 lung) was 65.5 µM, the TGI (HOP-92 NSCLC) was greater than 100 µM and the TGI (MOLT-4 leukemia) was 53 µM. It also gave a TGI (A498 renal) of 86.2 µM, a TGI (PC-3 prostate) of 82.5 µM and a TGI (MDA-N) of 99.2 µM.
